This is an account of results in ChEMBL document CHEMBL1140271, “Synthesis and antibacterial activity of 5-methoxy- and 5-hydroxy-6-fluoro-1,8-naphthyridone-3-carboxylic acid derivatives” (Bioorg Med Chem Lett, 2005).

One experiment has as its system Haemophilus influenzae. Kind of experiment: Minimum inhibitory concentration against Haemophilus influenzae GYR 1435 gram-negative strain. In kind it is functional.
The test system of experiment [1] is Streptococcus pneumoniae. The experiment is described as follows: Minimum inhibitory concentration against Streptococcus pneumoniae 7257 Quinolone-resistant strain. In kind it is functional.
Experiment [2] concerns Streptococcus pneumoniae. The experiment is described as follows: Inhibitory concentration against Streptococcus pneumoniae translation. It counts as functional, organism-based.

Values after ≈ are worked out from the molar mass of the structure shown.

With `O=C(O)c1cnc2nc(N3CCC3)c(F)c(O)c2c1O`, the MIC in the experiment with Haemophilus influenzae and against Streptococcus pneumoniae [1] was 64 µg/mL (≈ 229 µM) in each case. In addition, 200 µM corresponded to half-maximal inhibition with Streptococcus pneumoniae [2] (IC50).
On to `COc1c(F)c(N2CCC(N)C2)nc2ncc(C(=O)O)c(O)c12` (centres undefined), for which the MIC with Haemophilus influenzae and in the experiment with Streptococcus pneumoniae [1] was 64 µg/mL (≈ 199 µM) in each case. In addition, in the experiment on Streptococcus pneumoniae [2], the IC50 (in general, the concentration at which inhibition is half-maximal) was 4 µM.
For `COc1c(F)c(N2CCC2)nc2ncc(C(=O)O)c(O)c12`, the MIC against Haemophilus influenzae came out at 32 µg/mL (≈ 109 µM); in the experiment on Streptococcus pneumoniae [1], 8 µg/mL (≈ 27.3 µM). This molecule also showed an IC50 with Streptococcus pneumoniae [2] of 14 µM.
The matching figures for `NC1CCN(c2nc3ncc(C(=O)O)c(O)c3cc2F)C1` (centres undefined): 4 µg/mL (≈ 13.7 µM), 32 µg/mL (≈ 109 µM) and 7 µM.
For the molecule `COc1c(F)c(N2CCCC2)nc2ncc(C(=O)O)c(O)c12`, the MIC was determined as 64 µg/mL (≈ 208 µM) against Haemophilus influenzae and 32 µg/mL (≈ 104 µM) in the experiment on Streptococcus pneumoniae [1]. In the experiment with Streptococcus pneumoniae [2], half-maximal inhibition (IC50) was put at 32 µM.
In the case of `O=C(O)c1cnc2nc(N3CCCC3)c(F)cc2c1O`, the results for the MIC in the experiment with Haemophilus influenzae and in the experiment with Streptococcus pneumoniae [1] were 1 µg/mL (≈ 3.61 µM) and 4 µg/mL (≈ 14.4 µM), respectively. For the same molecule, in the experiment with Streptococcus pneumoniae [2], the IC50 is 10 µM.
On to `O=C(O)c1cnc2nc(N3CCCC3)c(F)c(O)c2c1O`, for which the MIC in the experiment on Haemophilus influenzae and in the experiment with Streptococcus pneumoniae [1] was 4 µg/mL (≈ 13.6 µM) throughout. In the experiment on Streptococcus pneumoniae [2], it took 51 µM to reach half-maximal inhibition (IC50).
Turning to `NC1CCN(c2nc3ncc(C(=O)O)c(O)c3c(O)c2F)C1` (centres undefined), the figures for the MIC with Haemophilus influenzae and in the experiment with Streptococcus pneumoniae [1] were 32 µg/mL (≈ 104 µM) and 64 µg/mL (≈ 208 µM), respectively. The molecule further came in with an IC50 with Streptococcus pneumoniae [2] of 17 µM.
For the molecule `O=C(O)c1cnc2nc(N3CCC3)c(F)cc2c1O`, the results for the MIC against Haemophilus influenzae and against Streptococcus pneumoniae [1] were 1 µg/mL (≈ 3.8 µM) and 4 µg/mL (≈ 15.2 µM), respectively. This molecule also came in with an IC50 in the experiment with Streptococcus pneumoniae [2] of 5 µM.
The molecule `C[C@H]1COc2c(N3CCN(C)CC3)c(F)cc3c(=O)c(C(=O)O)cn1c23.C[C@H]1COc2c(N3CCN(C)CC3)c(F)cc3c(=O)c(C(=O)O)cn1c23.O` [LEVOFLOXACIN] displayed an MIC in the experiment with Haemophilus influenzae of 0.015 µg/mL. In addition, the IC50 in the experiment on Streptococcus pneumoniae [2] is > 100 µM.
